Measured values from ChEMBL document CHEMBL5390238, “The mechanisms of multidrug resistance of breast cancer and research progress on related reversal agents” (Bioorg Med Chem, 2023).
pIC50: −log10 of the molar value.

Key:
[1] = test system: HaCaT; assay: Cytotoxicity against human HaCaT cells incubated for 72 hrs by MTT assay; type: functional, cell-based
[2] = test system: HepG2; assay: Antiproliferative activity against human HepG2 cells assessed as inhibition of cell growth incubated for 48 hrs by MTT assay; type: functional, cell-based; conditions: HepG2, 48 h
[3] = test system: HeLa; assay: Antiproliferative activity against human HeLa cells assessed as inhibition of cell growth incubated for 72 hrs by MTT assay; type: functional, cell-based
[4] = test system: HCT-116; assay: Cytotoxicity against human HCT-116 cells assessed as cell viability measured as mitochondrial NADH-dependent dehydrogenase activity incubated for 72 to 120 hrs; type: functional, cell-based
[5] = test system: MCF7; assay: Antiproliferative activity against human MCF-7 cells assessed as inhibition of cell growth incubated for 48 hrs by MTT assay; type: functional, cell-based; conditions: MCF7, 48 h
[6] = test system: MCF7; assay: Cytotoxicity against human MCF7 cells; type: functional, cell-based
[7] = test system: MCF7; assay: Antiproliferative activity against human MCF-7 cells assessed as cell growth inhibition; type: functional
[8] = test system: MDA-MB-231; assay: Antiproliferative activity against human MDA-MB-231 cells assessed as cell growth inhibition; type: functional
[9] = biological target: T1, Estrogen receptor (Homo sapiens, UniProt P03372); assay: Inhibition of human ERalpha expressed in Saccharomyces cerevisiae co-expressing lacZ using CPRG as substrate incubated for 48 hrs by Colorimetric assay
T1 sequence (P03372 whole entry): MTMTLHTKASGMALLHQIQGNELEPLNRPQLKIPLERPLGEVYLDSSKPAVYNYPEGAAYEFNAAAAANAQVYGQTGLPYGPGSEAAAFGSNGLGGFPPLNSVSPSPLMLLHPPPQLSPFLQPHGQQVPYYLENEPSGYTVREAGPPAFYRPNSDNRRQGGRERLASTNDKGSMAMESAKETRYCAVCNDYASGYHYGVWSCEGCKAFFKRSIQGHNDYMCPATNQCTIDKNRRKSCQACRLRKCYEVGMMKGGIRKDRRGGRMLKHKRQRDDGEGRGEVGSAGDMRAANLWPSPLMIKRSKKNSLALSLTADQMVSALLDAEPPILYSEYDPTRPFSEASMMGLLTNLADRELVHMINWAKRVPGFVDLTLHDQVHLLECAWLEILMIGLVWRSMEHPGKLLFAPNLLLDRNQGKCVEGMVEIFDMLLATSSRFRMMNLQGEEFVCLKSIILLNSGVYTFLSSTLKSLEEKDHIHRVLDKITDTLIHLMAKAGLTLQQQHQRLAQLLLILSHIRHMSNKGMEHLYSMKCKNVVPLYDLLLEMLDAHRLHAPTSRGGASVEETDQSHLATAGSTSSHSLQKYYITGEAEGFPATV

[10] = Antiproliferative activity against human MCF7/BUS cells assessed as cell growth inhibition incubated for 6 days by MTT assay; type: functional, cell-based; conditions: 144 h
[11] = Cytotoxicity against human RL14 cells incubated for 72 hrs by resazurin blue assay; type: toxicity, cell-based
[12] = test system: NCI/ADR-RES; assay: Cytotoxicity against human MCF7ADR cells; type: functional, cell-based
[13] = test system: MCF7; assay: Cytotoxicity against human MCF7 cells assessed as inhibition of cell growth in presence of paclitaxel by MTT assay; type: functional, cell-based
[14] = Antiproliferative activity against multidrug resistant human MDA-MB-231/TxR cells assessed as inhibition of cell growth preincubated for 24 hrs followed by taxol treatment for 24 hrs by MTT assay; type: functional, cell-based

Structure (SMILES): COc1cc(/C=C/c2ccc(SC)cc2)cc(OC)c1
- pIC50 [1]: 4.60

Structure (SMILES): COc1cc([C@H]2OC[C@H]3[C@@H]2CO[C@@H]3c2ccc(O)c(OC)c2)ccc1O
- pIC50 [2]: 7.29

Structure (SMILES): Cc1nc(C)c(COC(=O)[C@]23CCC(C)(C)C[C@H]2C2=CC[C@@H]4[C@@]5(C)CC[C@H](OC(=O)CN)C(C)(C)[C@@H]5CC[C@@]4(C)[C@]2(C)CC3)nc1C
- pIC50 [3]: 5.49

Structure (SMILES): COc1ccc(/C(C#N)=C/c2ccc(N3CCC(O)CC3)s2)cc1OC
- pIC50 [4]: 8.00

Structure (SMILES): CCNCc1ccccc1[Se][Se]c1ccccc1CNCC
- pIC50 [5]: 7.82

Structure (SMILES): CO[C@]1(CC[C@H](C)CO[C@@H]2O[C@H](CO)[C@@H](O)[C@H](O)[C@H]2O)O[C@H]2C[C@H]3[C@@H]4CC[C@@H]5C[C@@H](O[C@@H]6O[C@H](CO)[C@H](O[C@@H]7O[C@H](CO)[C@@H](O)[C@H](O[C@@H]8OC[C@@H](O)[C@H](O)[C@H]8O)[C@H]7O[C@@H]7O[C@H](CO)[C@H](O)[C@H](O)[C@H]7O)[C@H](O)[C@H]6O)CC[C@]5(C)[C@H]4CC[C@]3(C)[C@H]2[C@@H]1C
- pIC50 [6]: 8.28

Structure (SMILES): CCC(Cc1ccccc1)=C(c1ccc(OCCN2CCCC2)cc1)c1ccc(OC(=O)NCc2ccccc2)cc1
- GI50 [7]: 90 nM
- GI50 [8]: 1840 nM

Structure (SMILES): CCC(Cc1ccc(OC)cc1)=C(c1ccc(O)cc1)c1ccc(OCCCN(C)C)cc1
- pIC50 [9]: 6.29
- pIC50 [10]: 7.02

Structure (SMILES): COc1cccc2c1C(=O)c1c(O)c3c(c(O)c1C2=O)C[C@@](O)(C(=O)CO)C[C@@H]3O[C@H]1C[C@H](NC(=O)CNC(=O)Oc2ccc(C3=C(O)C(=O)C4C(O)=CC(O)=CC4O3)cc2O)[C@H](O)[C@H](C)O1 (stereo partly specified)
- IC50 at 72 h [11]: 5 nM

Structure (SMILES): O=c1cc(-c2ccc(O)cc2)oc2cc(O)cc(O)c12 [APIGENIN]
- pIC50 [12]: 6.70

Structure (SMILES): COc1cc(/C=C/C(=O)CC(=O)/C=C/c2ccc(O)c(OC)c2)ccc1O [CURCUMIN]
- pIC50 [13]: 7.06

Structure (SMILES): Oc1ccc(/C=C/c2cc(O)cc(O)c2)cc1 [RESVERATROL]
- pIC50 [1]: 3.74

Structure (SMILES): CC/C(=C(\c1ccccc1)c1ccc(OCCN(C)C)cc1)c1ccccc1 [TAMOXIFEN]
- pIC50 [10]: 6.30

Structure (SMILES): CC(C)=CCC[C@@H](C(=O)O)[C@H]1CC[C@@]2(C)C3=C(CC[C@]12C)[C@@]1(C)CC[C@H](O)C(C)(C)[C@@H]1CC3 [TRAMETENOLIC ACID]
- pIC50 [14]: 6.99
